Source: article PMC3566143, “Pantothenamides Are Potent, On-Target Inhibitors of Plasmodium falciparum Growth When Serum Pantetheinase Is Inactivated” (PLoS ONE, 2013)

Tested on: P. falciparum PanK
Assay: [14C]pantothenate phosphorylation assay with P. falciparum lysate
Format: biochemical, Plasmodium falciparum
Details: 100 µM pantothenamide, 0.2 µM [14C]pantothenate, 10 min
Method: To assess the effect of the pantothenamides on pantothenate phosphorylation by P. falciparum PanK, the phosphorylation of [^14C]pantothenate by P. falciparum lysates was measured in the presence and absence of a single concentration of each pantothenamide. P. falciparum lysate was prepared from trophozoite stage parasites “isolated” from their host erythrocyte by treatment with 0.05% (w/v) saponin (essentially as described by Saliba et al.), and washed (five times) in HEPES-buffered saline (125 mM NaCl, 5 mM KCl, 20 mM D-glucose, 25 mM HEPES, 1 mM MgCl2, pH 7.1). Lysates were prepared as described by van Schalkwyk et al., except that 10 mM potassium phosphate, pH 7.4 (rather than 10 mM Tris, pH 7.4), was used to lyse the cells. Aliquots of lysate were stored at −20°C. The concentration of cell lysates was determined from cell counts made using an improved Neubauer hemocytometer.
[^14C]Pantothenate phosphorylation was assayed using the Somogyi reagent essentially as described by Saliba et al., except that pantothenate phosphorylation was terminated by heat denaturation (rather than acid denaturation) of the protein in reaction aliquots. Briefly, P. falciparum lysate was added to solutions (at 37°C) of 50 mM Tris, 5 mM ATP, 5 mM MgCl2, at pH 7.4, containing [^14C]pantothenate (at a final concentration of 0.01 µCi/mL, or 0.2 µM), and a pantothenamide (at a final concentration of 100 µM) or an equivalent volume of solvent. Typically, lysate prepared from 5.4–6.5×10^7 parasites was present in each mL of reaction solution. Zero phosphorylation control reactions were prepared by adding a corresponding volume of 10 mM potassium phosphate instead of parasite lysate. Following a ten minute incubation at 37°C (a period during which pantothenate phosphorylation increased linearly with time in the absence of inhibitors) 200 µL aliquots of the [^14C]pantothenate phosphorylation reactions were transferred in duplicate to microcentrifuge tubes, and immediately incubated at 95°C for 10 min to terminate phosphorylation. Terminated reaction samples were centrifuged at 15 800×g for 10 min to pellet the denatured protein, before two aliquots of each supernatant (typically 80 µL) were transferred to new microcentrifuge tubes. To one aliquot, 500 µL Somogyi reagent was added, and to the other, 500 µL water was added. The samples were processed for determination of phosphorylated [^14C]pantothenate as described previously.

CC(C)CNC(=O)CCNC(=O)[C@H](O)C(C)(C)CO [Compound 12]
Inhibition of pantothenate phosphorylation at 100 μM: 95 ± 5%
